{"source": "patent US11851642B2", "about": "“Test device” (HITACHI HIGH-TECH CORPORATION, priority 2015, dated 2023)", "type_in_all_cases": "cell-based", "key": {"Pseudomonas aeruginosa": {"test_system": "Pseudomonas aeruginosa", "test": "antimicrobial susceptibility testing by microscopic observation, circularity of the bacteria", "experimental": "(§1) In addition, when an examination is performed by using the bacteriological testing instrument 1, culture is performed by mixing a bacterial suspension prepared from a specimen with a culture fluid in the culture plate (for example, a culture plate which has 96 wells in total is used) 18. In order to perform the antimicrobial susceptibility testing, antimicrobial agents different from each other are set so as to be respectively contained in the culture fluids in each of the wells in particular concentrations. An order of the culturing is as follows. First, the bacterial suspension is introduced into the culture plate 18. Then, the bacterial suspension is in a state of being mixed with the culture fluid which is included in each of the wells, and the temperature controller 16 is set to a temperature of approximately 35° C. Furthermore, culture is performed by performing incubation such that the temperature of each of the wells in the culture plate 18 reaches the set temperature. Then, in the bacteriological testing instrument 1, while performing the incubation, the bacteria included in each of the wells can be monitored through the microscopic observation optical system. The microscopic observation may be performed for a set period of time from the start of the incubation till the end thereof by continuously monitoring the state of bacterial proliferation. In addition, the monitoring may be performed at the set time after setting appropriate time, and the monitoring result can be compared with the monitoring result when the incubation is started. In addition, similar to the bacteriological testing instrument in the related art, the turbidity of each of the wells may be measured through the turbidity measurement optical system while incubating the culture plate 18. The measured result may be compared with the monitored result of the microscopic observation optical system.\nFIG. 22 is a view (graph) illustrating a result obtained by antimicrobial susceptibility testing with respect to meropenem of Pseudomonas aeruginosa. The graph acquires the circularity of the Pseudomonas aeruginosa in the image measured through the microscopic observation, and illustrates the time-dependent change thereof. The plurality of Pseudomonas aeruginosa are observed in one image, but the circularity of each of the Pseudomonas aeruginosa is acquired, and the value obtained by calculating an average value of the bacteria in the image is plotted. In addition, the circularity is a value calculated by 4π×(area)/(perimeter length)^2. When the bacteria have a completely circular shape, 4π×πr^2/(2πr) ^2=1 is satisfied, and when the bacteria is deviated from a completely circular shape, the perimeter length increases, and thus, the circularity value decreases.\nIn the graph, in a case where there is no the antimicrobial agent to be plotted by a “rhomboidal (diamond) shape”, the circularity of the Pseudomonas aeruginosa was hardly changed from the start of culture. […] In addition, when the concentration of meropenem of which the decrease in circularity is stopped is 0.5 μg/mL or greater, it is determined that the Pseudomonas aeruginosa becomes extinct. In a case where the bacteria are not extinct, the shape of the bacteria changes. […] The exemplary embodiment is an example in which the time-dependent change of the circularity of the bacteria is plotted instead of plotting the time-dependent change of the areas of the bacteria. However, in this manner, by plotting the time-dependent change of the feature values that become an index for indicating a degree of proliferation or growth of the bacteria in addition to the bacterial numbers or the areas of the bacteria, not only the minimum inhibitory concentration (MIC) of the bacteria but also the minimum bactericidal concentration (MBC) can be determined."}, "[1]": {"test_system": "Staphylococcus aureus separated from the patient A", "test": "antimicrobial susceptibility testing by microscopic observation, areas of the bacteria", "settings": "for antimicrobial susceptibility determination (comparison with the break points): FIG. 20(a)", "excerpt": "as §1, with “In” for “In addition, when an examination is performed by using the bacteriological testing instrument 1, culture is performed by mixing a bacterial suspension prepared from a specimen with a culture fluid in the culture plate (for example, a culture plate which has 96 wells in total is used) 18. In”\n(§2) The processor determines whether the bacteria proliferate or the proliferation is interrupted under the corresponding culture condition, based on the microscopic image to which the above-described necessary treatments are performed. The determination whether or not the proliferation is performed, is performed by comparing with the information obtained based on the images at different times in the same container. More specifically, based on the image after the treatment illustrated in FIGS. 4 to 6, for example, the areas of the bacteria are calculated, and it is determined whether or not the proliferation is performed by creating the graph as illustrated in FIG. 12.\n(§3) The processor combines the information on whether or not the proliferation is performed under the culture condition with a combination of a certain concentration of the antimicrobial agent, and determines the minimum concentration of the antimicrobial agent (MIC, minimum inhibitory concentration) which becomes interruption of proliferation. Here, the MIC determination is performed with respect to all of the wells provided on the culture plate 21. For example, there are 96 wells on the culture plate 21, and various types of antimicrobial agents having different concentrations (for example, 0 μg/mL, 0.5 μg/mL, 1 μg/mL, 2.0 μg/mL, 4.0 μg/mL, 8.0 μg/mL, 16.0 μg/mL, . . . ) enter the wells."}, "[2]": {"test_system": "Staphylococcus aureus separated from the patient B", "test": "antimicrobial susceptibility testing by microscopic observation, areas of the bacteria", "settings": "for antimicrobial susceptibility determination (comparison with the break points): FIG. 20(b)", "excerpt": "as §1, with “In” for “In addition, when an examination is performed by using the bacteriological testing instrument 1, culture is performed by mixing a bacterial suspension prepared from a specimen with a culture fluid in the culture plate (for example, a culture plate which has 96 wells in total is used) 18. In”\nas §2, §3"}, "[3]": {"test_system": "Enterococcus faecalis (ATCC29212)", "test": "antimicrobial susceptibility testing by microscopic observation, areas of the bacteria", "set-up": "key: Waiting is determined, and “W” is displayed; Growth is determined, and “G” is displayed; Inhibit is determined, and “I” is displayed", "experimental": "as §1, with “The microscopic observation may be performed for a set period of time from the start of the incubation till the end thereof by continuously monitoring the state of bacterial proliferation. In addition, the monitoring may be performed at the set time after setting appropriate time, and the monitoring result can be compared with the monitoring result when the incubation is started.” left out\nas §2, with “The determination whether or not the proliferation is performed, is performed by comparing with the information obtained based on the images at different times in the same container.” left out, “12. […]” for “12.”"}, "E coli (ATCC25922)": {"test_system": "E coli (ATCC25922)", "test": "antimicrobial susceptibility testing by microscopic observation (binarized images)", "settings": "ampicillin 2 μg/mL in culture fluid; 180 minutes from the start of culture (FIG. 5(b))", "experimental": "as §1, with “C. […]” for “C. Furthermore, culture is performed by performing incubation such that the temperature of each of the wells in the culture plate 18 reaches the set temperature.”, “system. […]” for “system. The microscopic observation may be performed for a set period of time from the start of the incubation till the end thereof by continuously monitoring the state of bacterial proliferation. In addition, the monitoring may be performed at the set time after setting appropriate time, and the monitoring result can be compared with the monitoring result when the incubation is started.”, “system. […]” for “system.”"}, "[4]": {"test_system": "E coli separated from a patient A", "test": "antimicrobial susceptibility testing by microscopic observation, areas of the bacteria", "experimental": "as §1, §2\nas §3, with “wells. Therefore, the minimum concentration (MIC) of the antimicrobial agent which becomes interruption of proliferation can be ascertained.” for “wells.”\n(§4) The processor further determines whether the bacteria of the examination target is sensitive (S), resistant (R), and intermediate (I) with respect to the corresponding antimicrobial agent by comparing with a break point (a break point of Clinical and Laboratory Standards Institute (CLSI), a break point of Japanese Society of Chemotherapy, or a break point of EUCAST) which is stored as reference data. […]"}, "[5]": {"test_system": "E coli separated from a patient B", "test": "antimicrobial susceptibility testing by microscopic observation, areas of the bacteria", "experimental": "as §1, §2\nas §3, with “wells. Therefore, the minimum concentration (MIC) of the antimicrobial agent which becomes interruption of proliferation can be ascertained.” for “wells.”\nas §4"}}, "note": "“And” between values parts separate entries of the source, which are not always exact repeats. Identical values can stand only once.", "data": [{"smiles": "C[C@@H](O)[C@H]1C(=O)N2C(C(=O)O)=C(S[C@@H]3CN[C@H](C(=O)N(C)C)C3)[C@H](C)[C@H]12", "note": "[meropenem]", "values": [{"measurement": "concentration at which the circularity continues to decrease: bacteria elongated but not become extinct yet", "setting": "Pseudomonas aeruginosa; FIG. 22", "result": "0.125 µg/mL and 0.25 µg/mL"}, {"measurement": "concentration at which the decrease in circularity is stopped: bacteria become extinct (can be estimated as MBC)", "setting": "Pseudomonas aeruginosa; FIG. 22", "result": "≥ 0.5", "unit": "µg/mL"}, {"measurement": "time from the start of culture after which the circularity starts to decrease", "setting": "Pseudomonas aeruginosa; meropenem 0.25 μg/mL, bacteria elongated (FIG. 22)", "result": 90, "unit": "min"}, {"measurement": "time-dependent change of the circularity", "setting": "Pseudomonas aeruginosa; meropenem 0.5 μg/mL (FIG. 22)", "result": "slightly decreases"}, {"measurement": "time-dependent change of the circularity", "setting": "Pseudomonas aeruginosa; meropenem 1.0 μg/mL (FIG. 22)", "result": "slightly decreases"}, {"measurement": "time-dependent change of the circularity", "setting": "Pseudomonas aeruginosa; meropenem 2.0 μg/mL (FIG. 22)", "result": "slightly decreases"}]}, {"smiles": "CN[C@H](CC(C)C)C(=O)N[C@H]1C(=O)N[C@@H](CC(N)=O)C(=O)N[C@H]2C(=O)N[C@H]3C(=O)N[C@H](C(=O)N[C@H](C(=O)O)c4cc(O)cc(O)c4-c4cc3ccc4O)[C@H](O)c3ccc(c(Cl)c3)Oc3cc2cc(c3O[C@@H]2O[C@H](CO)[C@@H](O)[C@H](O)[C@H]2O[C@H]2C[C@](C)(N)[C@H](O)[C@H](C)O2)Oc2ccc(cc2Cl)[C@H]1O", "note": "[vancomycin]", "values": [{"measurement": "antimicrobial susceptibility determination (comparison with the break points)", "setting": "[1]", "result": "sensitivity"}, {"measurement": "concentration at which the proliferation is performed", "setting": "[1]; images within 300 minutes from the start of culture (FIG. 18, FIG. 19(a))", "result": 0.25, "unit": "µg/mL"}, {"measurement": "antimicrobial susceptibility determination (comparison with the break points)", "setting": "[2]", "result": "Intermediate"}, {"measurement": "concentration at which the proliferation is performed", "setting": "[2]; images within 300 minutes from the start of culture (FIG. 18, FIG. 19(b))", "result": "≤ 0.5", "unit": "µg/mL"}]}, {"smiles": "C[C@H]1COc2c(N3CCN(C)CC3)c(F)cc3c(=O)c(C(=O)O)cn1c23", "note": "[levofloxacin]", "values": [{"measurement": "proliferation determination result", "setting": "[3]; levofloxacin 0.5 μg/mL, after 120 minutes (FIG. 13)", "result": "G"}, {"measurement": "proliferation determination result", "setting": "[3]; levofloxacin 1.0 μg/mL, after 150 minutes (FIG. 13)", "result": "I"}, {"measurement": "proliferation determination result", "setting": "[3]; levofloxacin 2.0 μg/mL, after 150 minutes (FIG. 13)", "result": "I"}]}, {"smiles": "CC1(C)S[C@@H]2[C@H](NC(=O)[C@H](N)c3ccccc3)C(=O)N2[C@H]1C(=O)O", "note": "[ampicillin]", "values": [{"measurement": "state of the bacteria in the microscopic observation image", "setting": "E coli (ATCC25922)", "result": "elongated"}, {"measurement": "antimicrobial susceptibility determination (comparison with the break points)", "setting": "[1]", "result": "resistance"}, {"measurement": "antimicrobial susceptibility determination (comparison with the break points)", "setting": "[2]", "result": "Intermediate"}, {"measurement": "sensitivity determination (comparison with the break points)", "setting": "[4]; FIG. 17(a)", "result": "durability"}, {"measurement": "proliferation determination result (MIC determination result)", "setting": "[4]; all ampicillin conditions (FIG. 16(a))", "result": "determined to proliferate"}, {"measurement": "time-dependent change of the areas of the bacteria (standardized by the areas at start of culture)", "setting": "[4]; ampicillin 512 μg/mL, compared to no antimicrobial agent (FIG. 15(a))", "result": "slightly increases"}, {"measurement": "concentration at which the proliferation is interrupted (MIC determination result)", "setting": "[5]; after 180 minutes from the start of culture (FIG. 16(b))", "result": "≥ 8", "unit": "µg/mL"}, {"measurement": "time-dependent change of the areas of the bacteria (standardized by the areas at start of culture)", "setting": "[5]; ampicillin 4 μg/mL (FIG. 15(b))", "result": "increase tends to be stopped"}, {"measurement": "time-dependent change of the areas of the bacteria (standardized by the areas at start of culture)", "setting": "[5]; ampicillin 8 μg/mL or greater (FIG. 15(b))", "result": "area tends to decrease"}]}]}
